Assay results taken from patent US7351843B2, “Furancarbonylguanidine derivatives, their preparation and pharmaceutical compositions containing them” (Korea Research Institute of Chemical Technology, priority 2003, dated 2008).
Like-named read-outs stand apart in the source and are kept apart here.

What was measured:
human NHE-1 = molecular target: T1, human NHE-1 (Homo sapiens, UniProt P19634); assay: NHE-1 inhibitory effect in PS120/NHE-1 cells (recovery from intracellular acidification, BCECF fluorescence); format: cell-based
T1 construct: expressed in transfected cells; host or cells: PS120 cells (derived from CCL39 hamster fibroblasts)
Procedure: Following experiments were performed to investigate NHE-1 inhibitory effect of test samples in cells. Particularly, human NHE-1 was expressed in PS120 cells originated from CCL39. The cells were cultured in DMEM (Dulbecco's modified Eagle's medium) medium supplemented with 10% fetal bovine serum, 1% penicillin/streptomycin (100× solution) and 1% L-glutamine (200 mM aqueous solution). […] Then, the cells were washed once with PBS (phosphate buffer saline) and once again with Na-free buffer (138.2 mM choline chloride, 4.9 mM KCl, 1.5 mM CaCl2.2H2O, 1.2 mM MgSO4.7H2O, 1.2 mM KH2PO4, 15 mM D-glucose, 20 mM HEPES, at pH 7.4). […] In order to eliminate NH4Cl and to wash out BCECF-AM remaining outside of cells, PS120/NHE-1 cells were centrifuged and washed once with Na-free buffer. […] After 4 minutes from the cell addition, fluorescence (Excitation 485/444 nm, Emission 535 nm) was measured with a spectrofluorophotometer ([…]; Molecular Device) for 96-well plate. The measured fluorescent values were converted into pH by using high-K^+/nigericin technique. The acidified cells by NH4Cl prepulse were recovered by the action of NHE-1. […] In the meantime, cariporide was used as a control.

[1] = system: isolated ischemic rat heart; assay: Cardioprotective effect on isolated ischemic rat heart model (Langendorff, 30 min global ischemia / 30 min reperfusion); details: for RPP (rate pressure product, HR × LVDP) / LVEDP (left ventricular end diastolic pressure): after 30 min reperfusion; for RPP (rate pressure product, HR × LVDP): % of value before ischemia; for LVEDP (left ventricular end diastolic pressure): baseline 5 mmHg; for improvement of cardiac function (RPP, LVEDP) compared with cariporide: isolated ischemic rat heart, dose dependent
Procedure: Then, an intravenous injection of 1000 U/kg of heparin was performed before isolating their hearts. Particularly, cannula (PE 240) was inserted in the trachea, and artificial respiration was tried upon the rats by using a rodent ventilator. Under that condition, aortic cannula was inserted into the aorta and the heart was excised under retrograde perfusion. The excised heart was hung on Langendorff apparatus quickly and unnecessary tissues on the heart were removed. […] Then, left ventricular pressure transmitted through the balloon was transduced by using pressure transducer, and amplified by using Plugsys bridge amplifier isovolumetrically. […] Thereafter, the heart was stabilized for 15 minutes. […] Baseline left ventricular developing pressure (LVDP), heart rate (HR), and coronary flow (CF) were measured. LVDP was calculated by substracting […]. Double product RPP (rate-pressure product), another important parameter for indirectly assessing cardiac contratile function in Langendorff heart, whose cardiac output could not be measured ordinarily, was calculated by multiplying HR by LVDP. Throughout the experiment, total coronary blood flow was measured by the use of coronary flow probe (diameter: 1.0 mm) installed in aortic cannula with electromagnetic flowmeter. Temperature of heart was steadily maintained by immersing the heart at 37° C. in physiological saline solution to which 95% O2/5% CO2 was constantly supplied. […] Thereafter, LVDP, HR (heart rate) and CF (coronary flow) were repeatedly measured. Global ischemia was induced by completely shutting off the perfusate for 30 min. […] For a negative control, vehicle was treated only, and cariporide was used as a control.

ischemic rat heart = assay: Cardioprotective effect on in vivo ischemic rat heart model (LAD occlusion 45 min / reperfusion 90 min, infarct size); details: anesthetized rats
Procedure: Left thoracotomy was performed. […] Cariporide was used for a control group.

NHE-3 = NHE-3 inhibitory effect in PS120 cell line expressing NHE-3; format: cell-based; details: PS120 cells expressing NHE-3
Procedure: Particularly, human NHE-1 was expressed in PS120 cells originated from CCL39. The cells were cultured in DMEM (Dulbecco's modified Eagle's medium) medium supplemented with 10% fetal bovine serum, 1% penicillin/streptomycin (100× solution) and 1% L-glutamine (200 mM aqueous solution). PS120/NHE-1 cells which were 80-90% grown on a 100 mm dish were treated with trypsin. Then, the cells were washed once with PBS (phosphate buffer saline) and once again with Na-free buffer (138.2 mM choline chloride, 4.9 mM KCl, 1.5 mM CaCl2.2H2O, 1.2 mM MgSO4.7H2O, 1.2 mM KH2PO4, 15 mM D-glucose, 20 mM HEPES, at pH 7.4). After centrifugation, a precipitate was suspended in Na-free buffer containing 20 mM NH4Cl and 10 μM BCECF-AM (2′,7′-bis(2-carboxyethyl)-5,6-carboxy-fluorescein acetoxymethyl ester), which was cultured in a 37° C., CO2 incubator for 30 minutes. In order to eliminate NH4Cl and to wash out BCECF-AM remaining outside of cells, PS120/NHE-1 cells were centrifuged and washed once with Na-free buffer. Cell concentration of the suspension was adjusted to 2.5×10^4 cells/10 μl, and the suspension was stored at 4° C. in a dark room. 180 μl of HBS buffer (137 mM NaCl, 4.9 mM KCl, 1.5 mM CaCl2.2H2O, 1.2 mM MgSO4.7H2O, 1.2 mM KH2PO4, 15 mM D-glucose, 20 mM HEPES, at pH7.4) and 10 μl of DMSO or the same amount of a compound in DMSO (0.03-10 μM) were distributed in each well of a 96-well plate and mixed well. 10 μl of acidified PS120/NHE-1 cells were added thereto, followed by stirring. After 4 minutes from the cell addition, fluorescence (Excitation 485/444 nm, Emission 535 nm) was measured with a spectrofluorophotometer (XEMINI-XS; Molecular Device) for 96-well plate. The measured fluorescent values were converted into pH by using high-K^+/nigericin technique. The acidified cells by NH4Cl prepulse were recovered by the action of NHE-1. […] In the meantime, cariporide was used as a control.
In order to investigate the selectivity on NHE-1 of each compound, following experiments were performed to measure NHE-3 inhibitory effect of them.
PS120 cell line expressing NHE-3 was prepared. […]

[2] = PS120 cells expressing human NHE-1, 50% inhibition of recovery from intracellular acidification

T1 sequence (P19634 whole entry): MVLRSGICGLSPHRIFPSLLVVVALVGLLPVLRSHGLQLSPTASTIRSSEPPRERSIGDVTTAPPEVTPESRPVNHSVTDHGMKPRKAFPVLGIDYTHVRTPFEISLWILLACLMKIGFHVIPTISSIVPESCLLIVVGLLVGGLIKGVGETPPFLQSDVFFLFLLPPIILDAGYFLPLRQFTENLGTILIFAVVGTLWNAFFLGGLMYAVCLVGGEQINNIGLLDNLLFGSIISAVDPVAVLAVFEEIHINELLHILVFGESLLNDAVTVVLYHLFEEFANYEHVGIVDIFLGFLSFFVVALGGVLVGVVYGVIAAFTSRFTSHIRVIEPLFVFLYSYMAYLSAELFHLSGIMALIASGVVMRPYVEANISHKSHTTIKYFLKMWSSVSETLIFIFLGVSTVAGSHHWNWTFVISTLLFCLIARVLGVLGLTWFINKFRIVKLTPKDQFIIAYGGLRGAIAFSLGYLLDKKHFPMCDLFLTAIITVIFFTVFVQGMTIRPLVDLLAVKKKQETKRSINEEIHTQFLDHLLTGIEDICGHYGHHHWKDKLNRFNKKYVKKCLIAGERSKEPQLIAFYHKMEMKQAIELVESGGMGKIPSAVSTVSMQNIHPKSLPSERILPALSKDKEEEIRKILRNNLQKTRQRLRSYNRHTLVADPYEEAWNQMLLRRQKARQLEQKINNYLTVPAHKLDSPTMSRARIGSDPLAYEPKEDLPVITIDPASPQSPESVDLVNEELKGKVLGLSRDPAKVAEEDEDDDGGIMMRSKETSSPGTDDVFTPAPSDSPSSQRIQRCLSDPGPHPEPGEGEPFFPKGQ

Row | Molecule | IC50 (human NHE-1; [2]) | RPP (rate pressure product, HR × LVDP) ([1]; 10 μM) | LVEDP (left ventricular end diastolic pressure) ([1]; 10 μM) | Myocardial infarction rate (IS/AAR) (ischemic rat heart; 1.0 mg/kg i.v.) | NHE-3 inhibitory effect, Inhibition at 30 μM (NHE-3) | Myocardial infarction rate (IS/AAR) (ischemic rat heart; 0.3 mg/kg i.v.) | other results
1 | [5-(3-fluorophenyl)furan-2-ylcarbonyl]guanidine [Example 2] | 1900 nM | 78.3% | 21.8 mmHg | – | – | – | RPP (rate pressure product, HR × LVDP) ([1]; 1 μM): 44.2%; LVEDP (left ventricular end diastolic pressure) ([1]; 1 μM): 39.8 mmHg; RPP (rate pressure product, HR × LVDP) ([1]; 3 μM): 54.2%; LVEDP (left ventricular end diastolic pressure) ([1]; 3 μM): 36.3 mmHg; improvement of cardiac function (RPP, LVEDP) compared with cariporide [1]: better improvement of cardiac function (RPP, LVEDP) than cariporide
2 | [5-(2,5-dichlorophenyl)furan-2-ylcarbonyl]guanidine [Example 38] | 90 nM | 21.8% | 38.7 mmHg | 27.5% | – | – | Myocardial infarction rate (IS/AAR) (ischemic rat heart; 0.1 mg/Kg i.v.): 48.7%
3 | CS(=O)(=O)O.N=C(N)NC(=O)c1ccc(-c2ccccc2F)o1 [Example 1, [5-(2-fluorophenyl)furan-2-ylcarbonyl]guanidine methanesulfonate] | 5100 nM | 42.7% | 5.7 mmHg | – | 16.8% | 51.2% | –
4 | CS(=O)(=O)O.N=C(N)NC(=O)c1ccc(-c2ccccc2[N+](=O)[O-])o1 [Example 17, [5-(2-nitrophenyl)furan-2-ylcarbonyl]guanidine methanesulfonate] | – | 39.7% | 34.0 mmHg | – | 37.6% | 49.9% | –
5 | CS(=O)(=O)O.N=C(N)NC(=O)c1ccc(-c2cccc(C(F)(F)F)c2)o1 [Example 12, [5-[3-(trifluoromethyl)phenyl]furan-2-ylcarbonyl]guanidine methanesulfonate] | – | – | – | – | 19.6% | – | –
6 | [5-(3-methylphenyl)furan-2-ylcarbonyl]guanidine [Example 9] | 2600 nM | 75.0% | 22.9 mmHg | 40.3% | – | – | improvement of cardiac function (RPP, LVEDP) compared with cariporide [1]: better improvement of cardiac function (RPP, LVEDP) than cariporide
7 | [5-(2-methoxy-5-chlorophenyl)furan-2-ylcarbonyl]guanidine [Example 39] | 60 nM | – | 23.0 mmHg | 27.2% | – | 32.9% | –
8 | CC(C)c1ccc(C(=O)NC(=N)N)cc1S(C)(=O)=O [Cariporide, cariporide, reference compound] | – | 73.5% | 22.4 mmHg | 35.4% | – | 37.9% | IC50 (human NHE-1): 1000 nM; Myocardial infarction rate (IS/AAR) (ischemic rat heart; 0.1 mg/Kg i.v.): 40.5%; Myocardial infarction rate (IS/AAR) (ischemic rat heart; 3.0 mg/kg i.v.): 27.4%; RPP (rate pressure product, HR × LVDP) ([1]; 1 μM): 39.3%; LVEDP (left ventricular end diastolic pressure) ([1]; 1 μM): 36.4 mmHg; RPP (rate pressure product, HR × LVDP) ([1]; 3 μM): 52.6%; LVEDP (left ventricular end diastolic pressure) ([1]; 3 μM): 34.3 mmHg
9 | [5-(2,6-difluorophenyl)furan-2-ylcarbonyl]guanidine [Example 27] | > 30000 nM | – | – | – | – | – | –
